Reference: patent US8394785B2, “Methods for the treatment and amelioration of urticaria” (Jado Technologies GmbH, priority 2005, dated 2013)
“Also recorded” adds a separate entry of the source. Where a name gives a salt, the structure may show the parent alone. Read-outs that look alike come from different tables or passages of the source.

Assays:
[1] = system: Rat basophilic leukemia (RBL-2H3) cells; assay: Mast cell degranulation assay (β-hexosaminidase release); format: cell-based; details: for IC50: 1 h, concentration at which 50% of maximal inhibition is reached, RBL-2H3, 60 min incubation with compound, DNP antigen challenge, read-out: ID50 (the source's name); for activity in the mast cell degranulation assay (in words): FIGS. 1 to 8
Method: The assay measures release of β-hexosaminidase as a marker of release of various preformed pharmacological agents in response to clustering of the high affinity IgE receptor (FcεRI) by means of multivalent antigen-IgE complexes. Rat basophilic leukemia (RBL-2H3) cells, a commonly used model of mast cell degranulation, are sensitized with anti-DNP specific IgE and challenged with multivalent DNP-BSA. The release of β-hexosaminidase into the supernatant is measured by enzymatic conversion of the fluorogenic substrate 4-methylumbelliferyl-N-acetyl-β-D-glucosaminide to N-acetyl-β-D-glucosamine and highly fluorescent methylumbelliferone and quantified by fluorescence detection in a Tecan Safire™ plate reader.
RBL-2H3 cells obtained from the German Collection of Microorganisms and Cell Cultures (Braunschweig, Germany) were maintained in 70% Minimum Essential Medium with Earle's Salts/20% RPMI 1640/10% heat-inactivated fetal calf serum) supplemented with 2 mM GlutaMAX™-I in 5% CO2 at 37° C. and routinely checked to be free of mycoplasma contamination. Cells grown in 175 cm^2 flasks were split with 0.05% Trypsin/EDTA and resuspended in 20 ml fresh medium. One hundred and 50 μl cell suspension were plated per well into 24 well cluster plates (Costar, Schiphol-Rijk, Netherlands) and cells were used one or two days after plating, respectively.
Two to 24 hours before incubation with test compounds the medium was removed and cells were sensitized with 0.4 μg/ml anti-DNP IgE in fresh medium. Following sensitization, cells were washed once with warm TyB and incubated for 60 min with test compound at a maximum of 100 μM or the highest non-toxic concentration (total vehicle concentration adjusted to 1%) or 1% vehicle in TyB at 37° C. DNP-HSA (0.1 μg/ml final concentration) or buffer alone was added and cells incubated for 15 min at 37° C. Plates were centrifuged at 4° C. for 5 min at 250×g and immediately transferred to ice. Supernatants were collected and the cells lysed with lysis buffer. Hexosaminidase activity in supernatants and lysates was measured by incubating 25 μl aliquots with 100 μl MUG substrate solution in a 96-well plate at 37° C. for 30 min. The reaction was terminated by addition of 150 μl stop solution. Fluorescence was measured in a Tecan Safire™ plate reader at 365 nm excitation and 440 nm emission settings.
Each compound is tested in duplicates in at least three independent experiments. β-hexosaminidase release is calculated after subtraction of unspecific release (release without addition of antigen) using the formula: % degranulation=100×RFU supernatant/RFU lysate
Inhibition of β-hexosaminidase release with respect to control is calculated as
follows: % inhibition=100×(1−(RFU supernatant of compound/RFU supernatant of control))

[2] = system: membrane integrity (lactate dehydrogenase release); assay: Cytotoxicity test / membrane integrity assay (Promega Cytotox-One), lactate dehydrogenase release; details: for CD50: concentration at which 50% of maximal lactate dehydrogenase release is reached; for cytotoxicity (in words): Table 2
[3] = system: membrane integrity (lactate dehydrogenase release)
[4] = Rattus norvegicus, RBL-2H3, 25 μM, read-out: maximum inhibition (concentration used)
[5] = Rattus norvegicus, RBL-2H3, at or 25 μM, read-out: inhibition of degranulation
[6] = Rattus norvegicus, RBL-2H3, read-out: maximum inhibition (concentration used)

IC50 ([1]; Rattus norvegicus) [µM] | Compound | inhibition at 25 µM [1, 4] [%] | inhibition at 25 µM [1, 5] [%] | CD50 [2] [µM] | inhibition at 10 µM [1, 6] [%] | also measured
7.1 | CCCCCCCCCCCCOP(=O)([O-])OCC[N+](C)(C)C [Compound 17, Dodecylphosphocholine] | 76 | > 75 | >100 |  | 
 | CCCCCCCCCCCCCCCC(=O)OC[C@H](O)COP(=O)([O-])OCC[N+](C)(C)C [Compound 20, 1-palmitoyl-2-hydroxy-sn-glycero-3-phosphocholine] | 26 |  |  |  | CD50 [3]: 70.3 µM
13.1 | CCCCCCCCCCCCCCCCOC[C@H](COP(=O)([O-])OCC[N+](C)(C)C)OC(=O)CC [Compound 28, 1-O-hexadecyl-2-propionyl-sn-glycero-3-phosphocholine] | 64 |  |  |  | 
6.2 | CCCCCCCCCCCCCCCCCCOCC(COP(=O)([O-])OCC[N+](C)(C)C)OC (centres unmarked) [Compound 5, edelfosine, reference compound] | 79 | > 75 | 59.0 |  | cytotoxicity (in words) [2]: higher cytotoxicity
2.8 | CCCCCCCCCCCCCCCCCCOP(=O)([O-])OC1CC[N+](C)(C)CC1 [Compound 9, octadecyl-(N,N-dimethyl-piperidinio-4-yl)-phosphate, reference compound] |  | > 75 | 76.7 | 85 | cytotoxicity (in words) [2]: less cytotoxic; also recorded: low toxicity
 | CCCCCCCCCCCCCCCCOC[C@H](COP(=O)([O-])OCC[N+](C)(C)C)SC(C)=O [Compound 12, 2-thio PAF C-16] | 41 |  | 86.5 |  | 
2.6 | CCCCCCCCCCCCCCCCCCOP(=O)([O-])OCC[N+](C)(C)C [Compound 23, octadecylphosphocholine (C18:0)] |  | > 75 | >50 | 82 | 
 | CCCCCCCCCCCCCCCCOC[C@@H](O)COP(=O)([O-])OCC[N+](C)(C)C [Compound 13, 1-hexadecyl-sn-glycero-3-phosphocholine 3-sn-lysophosphatidylcholine] | 41 |  | 58.8 |  | 
2.9 | CCCCCCCC/C=C/CCCCCCCCOP(=O)([O-])OCC[N+](C)(C)C [Compound 24, 1-elaidylphosphocholine (C18:1, trans)] |  | > 75 | 59.6 | 92 | 
13.7 | CCCCCCCCCCCCCCCCOC[C@H](COP(=O)([O-])OCC[N+]1(C)CCCC1)OC(C)=O [Compound 8, pyrrolidino PAF C-16] | 53 |  | 50.2 |  | 
 | CCCCCCCCCCCCCCCCOC[C@H](COP(=O)([O-])OCCCCCC[N+](C)(C)C)OC(C)=O [Compound 16, 1-O-hexadecyl-2-acetyl-sn-glycero-3-phospho-(N,N,N-trimethyl)hexanolamine] | 45 |  | 51.3 |  | 
2.9 | CCCCCCCCCCCCCCCCOC[C@H](COP(=O)([O-])OCC[N+](C)(C)C)OC [Compound 1, 2-O-methyl PAF C-16] |  | > 75 | 48.2 | 89 | 
11 | C/C=C/C(=O)O[C@H](COCCCCCCCCCCCCCCCC)COP(=O)([O-])OCCCCCC[N+](C)(C)C [Compound 7, butenoyl PAF C-16] | 69 |  | 79.6 |  | 
8 | CCCCCCCCCCCCCCCCCCOCC(C)(C)COP(=O)([O-])OCC[N+](C)(C)C [Compound 27, 1-O-octadecyl-(2,2-dimethyl)-propanediol-3-phosphocholine] | 85 | > 75 |  |  | 
 | CCCCCCCCCCCCCCCCOC[C@H](CO)OC [Compound 22, 1-O-hexa-decyl-2-O-methyl-sn-glycerol, reference compound] |  |  | >100 |  | activity in the mast cell degranulation assay (in words) [1]: poor results; inhibition at 100 µM ([1]; Rattus norvegicus, RBL-2H3, 100 μM, read-out: maximum inhibition (concentration used)): 15%
4.8 | CCCCCCCCCCCCCCCCSCC(COC)COP(=O)([O-])OCC[N+](C)(C)C (centres unmarked) [Compound 4, 1-hexadecylmercapto-2-methoxymethyl-3-propyl phosphoric acid monocholine ester, reference compound] | 84 | > 75 |  |  | 
 | CN1CCC(=C2c3ccccc3CC(=O)c3sccc32)CC1 [ketotifen fumarate, reference compound] |  |  |  |  | activity in the mast cell degranulation assay (in words) [1]: no or only low activity
 | CCCCCCCCCCCCCCCCOC[C@H](COP(=O)([O-])OCC[N+](C)(C)C)OC(C)=O [Compound 14, 1-hexadecyl-2-acetyl-sn-glycero-3-phosphocholine] | 42 |  |  |  | CD50 [3]: 57.7 µM
3 | CCCCCCCCCCCCCCCCOC[C@H](COP(=O)([O-])OCC[N+](C)(C)C)OCC [Compound 2, 2-O-ethyl PAF C-16] |  | > 75 | 57.2 | 86 | 
 | O=C(O)c1cc(=O)c2c(OCC(O)COc3cccc4oc(C(=O)O)cc(=O)c34)cccc2o1 [cromogylcic acid, reference compound] |  |  |  |  | activity in the mast cell degranulation assay (in words) [1]: no or only low activity
3.1 | CCCCCCCCCCCCCCCCOCCCOP(=O)([O-])OCC[N+](C)(C)C [Compound 26, 1-O-hexadecyl-propanediol-3-phosphocholine] |  | > 75 |  | 90 | 

Compound | IC50 ([1]; Rattus norvegicus) [µM] | inhibition at 25 µM [1, 4] [%] | inhibition at 25 µM [1, 5] [%] | CD50 [2] [µM] | inhibition at 10 µM [1, 6] [%] | also measured
CCCCCCCCCCCCCCCCOCC(COP(=O)([O-])OCC[N+](C)(C)C)OC(C)=O (centres unmarked) [Compound 25, 3-O-hexadecyl-2-acetyl-sn-glycero-1-posphocholine] | 3 |  | > 75 |  | 82 | 
